Source: US12564596B2, “Agents and methods for modulating pathogen activity” (Griffith University, priority 2018, dated 2026)
Like-named read-outs stand apart in the source and are kept apart here.

Assays:
[1] = system: N. gonorrhoeae strain MS11gfp adherence to CHO-CR3 cells; experiment: Fluorometric adherence assay, gonococci to CHO cells; type: cell-based, Neisseria gonorrhoeae
Experimental: The ability of carbamazepine to block adherence of N. gonorrhoeae strain MS11gfp to CHO-neo or CHO-CR3 cells was evaluated using a fluorometric adherence assay. Assays were performed essentially as described by Jen et al (2013, PLoS Pathog. 9(5):e1003377). In this regard, CHO-neo or CHO-CR3 cells were seeded to a 96-well plate and allowed to grow to confluence. MS11gfp gonococci were then used to challenge (1 h) CHO cells simultaneously with, or without, various concentrations of carbamazepine (as noted). Fluorescence (485/528 nm) intensity, corresponding to bacterial adherence, was recorded using a Synergy HT Multi-mode Microplate Reader (BioTek Instruments, Winooski, VT USA). The assay was performed in triplicate on 3 separate occasions. A Kruskal-Wallis k-sample analysis of variance was used to determine the statistical significance of the calculated mean of bacterial adherence.
(§1) The ability of the compounds, or negative controls to block adherence of N. gonorrhoeae strain MS11gfp to PEX cells, CHO-CR3, or CHO-neo cells was evaluated using a fluorometric microtiter plate assay. Assays were performed essentially as described by Jen et al. (2013, Plos Pathog 9(5): e1003377). In this regard, GFP-expressing gonococci were used to challenge (1 h) PEX or CHO cells immediately following compound addition. Fluorescence (485/528 nm) intensity, corresponding to bacterial adherence, was recorded using a Synergy HT Multi-mode Microplate Reader (BioTek Instruments, Winooski, VT USA). Blank wells, devoid of PEX or CHO cells, also were inoculated with bacteria and served as a control for non-specific binding. The assay was performed in triplicate on 3 separate occasions. A Student's t-test was used to determine the statistical significance of the calculated mean of bacterial adherence.

[2] = system: N. gonorrhoeae adherence to primary human cervical epithelial (PEX) cells; experiment: Fluorometric adherence assay, gonococci to PEX cells; type: cell-based, Neisseria gonorrhoeae; settings: for gonococcal adherence to PEX cells compared with uninfected cells: MS11gfp; for gonococcal adherence to PEX cells with increasing concentrations: 1 h post-challenge; for inhibition at 0.01 µM: Neisseria gonorrhoeae, 1 h, read-out: inhibition of adherence to PEX cells
Description: Briefly, six N. gonorrhoeae strains were used in the experiments. These included the laboratory strain, MS11; the low-passage isolates, 1291, UT38097, LT38885, PID-26, and SK92-679; all of which were transformed with the green fluorescent protein (GFP) expression plasmid, pCmGFP (GenBank accession number FJ172221) Srikhanta et al (2009, PLoS Pathog. 5(4):e1000400) and, thus, expressed GFP Edwards et al (2000, Infect Immun 68(9):5354-63). […] The ability of carbamazepine to block the adherence of N. gonorrhoeae to human, primary cervical epithelial (PEX) cells was evaluated using a fluorometric adherence assay. Assays were performed essentially as described by Jen et al (2013, supra). In this regard, PEX cells were seeded to a 96-well plate and allowed to grow to confluence. Gonococci were then used to challenge (1 h) PEX cells simultaneously with, or without, various concentrations of carbamazepine ([…], 10 nM, 1 μM, or 100 μM, as noted) or 1% DMSO (vehicle control). Uninfected PEX cells treated with 1% DMSO served as a control for background fluorescence. Fluorescence (485/528 nm) intensity, corresponding to bacterial adherence, was recorded using a Synergy HT Multi-mode Microplate Reader (BioTek Instruments, Winooski, VT USA). The assay was performed in triplicate on 3 separate occasions. A Student's t-test was used to determine the statistical significance of the calculated mean of bacterial adherence.
as §1

[3] = target: T1, human recombinant I-domain (rI-domain) of CD11b (Homo sapiens, UniProt P11215); experiment: Surface plasmon resonance binding to human rI-domain (KD)
T1 construct: made in house

[4] = target: T2, N. gonorrhoeae MS11 pilin interaction with human rI-domain (Homo sapiens, UniProt P11215); experiment: SPR 1:1 competition assay, MS11 pilin binding to rI-domain; settings: for inhibition at 0.1 µM: 1:1 competition, 100 nM; for Block MS11 pilin in SPR: direct competition SPR; for Drug RU: drug alone flowed at 100 nM over immobilized rI-domain; for Pilin + Drug RU: drug and pilin flowed at 100 nM, 1:1
T2 construct: was performed with human rI-domain immobilized on a CM5 sensor chip surface; made in house
Experimental: To determine if drugs with high affinity interactions with the human rI-domain could inhibit the interaction with MS11 pilin or HIV, competition assay between primary T-cell derived WITO HIV and N. gonorrhoeae MS11 pilin and the drugs were performed as described Mubaiwa et al (2017, Sci Rep. 7(1):5693). Competition analysis SPR of N. gonorrhoeae MS11 pilin and human rI-domain interaction was performed with human rI-domain immobilized on a CM5 sensor chip surface (low immobilization—˜3500 RU compared to ˜14000 RU for initial screening and KD calculations). N. gonorrhoeae MS11 purified pilin, drug or drug and pilin were flowed at 100 nM over the I-domain and the response units of the interactions were recorded.

[5] = system: N. gonorrhoeae strains; experiment: Well diffusion assay in the absence of human cells; parameters: species or system Neisseria gonorrhoeae; settings: GC-agar, overnight 37° C.
Experimental: (§2) FIG. 22 is a graphical representation showing the effect of carbamazepine on N. gonorrhoeae in the absence of human cells. Well diffusion assays were performed in which N. gonorrhoeae strains were spread uniformly across the surface of GC-agar plates at a culture density of 10^7 bacterial per mL. Wells were then punctured within the agar surface to which carbamazepine (Cz; […], as noted), 0.2 μg/mL ceftriaxone (Cfx), 10 μg/mL ciprofloxacin (Cip), or 1% DMSO (vehicle control) were added. […] For agar plates in which a ZOI was not visible, data were recorded as the diameter of the well (6 mm), as indicated. Assays were performed in triplicate on 3 separate occasions. Data are presented as the mean and variance of the average values obtained for each assay; statistical significance was determined using a Student's t-test. […] This is consistent with a CR3-dependent, host-mediated mechanism of killing.
as §2, with “23” for “22”, “methyldopa” for “carbamazepine”, “methyldopa (Md;” for “carbamazepine (Cz;”
FIG. 24 is a graphical representation showing the effect of flufenamic acid on N. gonorrhoeae in the absence of human cells. Well diffusion assays were performed in which N. gonorrhoeae strains were spread uniformly across the surface of GC-agar plates at a culture density of 10^7 bacterial per mL. Wells were then punctured within the agar surface to which flufenamic acid ([…], as noted), 0.2 μg/mL ceftriaxone, 10 μg/mL ciprofloxacin, or 1% DMSO (vehicle control) were added. […] For agar plates in which a ZOI was not visible, data were recorded as the diameter of the well (6 mm), as indicated. Assays were performed in triplicate on 3 separate occasions. Data are presented as the mean and variance of the average values obtained for each assay; statistical significance was determined using a Student's t-test.

[6] = system: primary T-cell derived WITO HIV interaction with human rI-domain; experiment: SPR 1:1 competition assay, WITO HIV binding to rI-domain; settings: for % inhibition: 1:1 competition, 1 μM; for Block HIV in SPR: direct competition SPR; for Drug RU: drug alone flowed at 1 μM over immobilized WITO HIV; for Pilin + Drug RU: drug and human rI-domain flowed at 1 μM, 1:1
Experimental: For competition analysis SPR of the HIV interaction with human rI-domain, primary T-cell derived WITO HIV was immobilized on a Cl sensor chip surface. Human rI-domain, drug or drug and human rI-domain were flowed at 1 μM over the immobilized HIV and the response units of the interactions were recorded. Any drug that could not compete with the virus or pilin binding to the rI-domain was also discarded. Remaining drugs were evaluated for known safety in humans and known therapeutic concentrations to determine if the drug would be tested, and at what concentrations, in in vitro cell models. All SPR sensorgrams and results plots were analyzed with Biacore S200 Evaluation Software (GE Healthcare Life Sciences).

[7] = 0.2 μg/mL ceftriaxone, 10 μg/mL ciprofloxacin

T2 sequence (P11215 150-328): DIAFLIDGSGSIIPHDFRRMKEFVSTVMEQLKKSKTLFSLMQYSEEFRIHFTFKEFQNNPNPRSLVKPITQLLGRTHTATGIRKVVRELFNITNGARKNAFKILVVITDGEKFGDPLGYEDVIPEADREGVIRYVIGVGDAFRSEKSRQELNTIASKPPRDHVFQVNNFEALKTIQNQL
T1 sequence (P11215 150-328 limits assumed): as the sequence (P11215 150-328) above

Row | Structure (SMILES) | gonococcal adherence to CHO-CR3 cells compared with CHO-neo cells ([1]; 100 μM, 1 h post-challenge) | gonococcal adherence to CHO-CR3, but not CHO-neo, cells with increasing concentrations ([1]; 1 h post-challenge) | gonococcal adherence to PEX cells compared with uninfected cells ([2]; 1 μM) | gonococcal adherence to PEX cells compared with uninfected cells ([2]; 100 μM) | gonococcal adherence to PEX cells with increasing concentrations [2] | inhibition at 0.01 µM [2] [%] | Kd ([3]; SPR, single cycle kinetics, 25° C., PBS, read-out: KD) [nM] | inhibition at 0.1 µM [4] [%] | Block MS11 pilin in SPR [4] | Drug RU [4] [RU] | Pilin + Drug RU [4] [RU] | effect on N. gonorrhoeae in the absence of human cells (zone of inhibition) ([5]; 100 μM to 100 μM [sic]) | % inhibition [6] [%] | Block HIV in SPR [6] | Drug RU [6] [RU] | Pilin + Drug RU [6] [RU] | effect on N. gonorrhoeae in the absence of human cells (zone of inhibition) [5, 7] | blocking of the adherence of gonococci to CR3 ([1]; 100 μM, CHO-CR3 cells, 1 h) | Kd [3] [nM] | effect on N. gonorrhoeae in the absence of human cells (zone of inhibition) ([5]; concentrations of ≤1 μM)
1 | C[C@](N)(Cc1ccc(O)c(O)c1)C(=O)O [methyldopa, (S)-2-amino-3-(3,4-dihydroxyphenyl)-2-methyl-propanoic acid] | not significantly different than that recorded for CHO-neo cells | dose-dependent decrease | not significantly (p≥0.234) different than those obtained for vehicle (DMSO)-treated, uninfected PEX cells | not significantly (p≥0.234) different than that recorded for uninfected cells | dose-dependent decrease | ~85 | 1.01 | 88.9 | Yes | 4.578 | 8.003 | no effect | 93.94 | Yes | 0.296 | 3.692 |  |  |  | 
2 | O=C(O)c1cn(C2CC2)c2cc(N3CCNCC3)c(F)cc2c1=O [ciprofloxacin] |  |  |  |  |  |  |  |  |  |  |  |  |  |  |  |  | direct effect in killing gonococci |  |  | 
3 | CO/N=C(\C(=O)N[C@@H]1C(=O)N2C(C(=O)O)=C(CSc3nc(=O)c(=O)[nH]n3C)CS[C@H]12)c1csc(N)n1 [ceftriaxone] |  |  |  |  |  |  |  |  |  |  |  |  |  |  |  |  | direct effect in killing gonococci |  |  | 
4 | O=C(O)c1ccccc1Nc1cccc(C(F)(F)F)c1 [flufenamic acid, 2{[3-(trifluoromethyl)phenyl]amino}benzoic acid] |  | dose-dependent decrease |  |  | dose-dependent decrease | ~70 |  | 79.8 | Yes | 4.627 | 10.872 | no effect | 85.47 | Yes | 0.473 | 8.857 |  | Greater than 86% | 6.66 | no effect
